The values below come from patent US5401853A, “Thiadiazole derivatives for the treatment of depressive states” (Laboratorio Farmaceutico C.T. S.r.l., priority 1992, dated 1995).

Like-named read-outs stand apart in the source and are kept apart here.

The test system of data set [1] is mice. Description: Dispair test (Porsolt) in mice. Format: in vivo, Swiss strain male mice (CD-1 Charles River). The settings on record: for immobility duration: 1 hour before test; for minimal effective dose: Dispair test, i.p., read-out: active dosage. The protocol:
This behaviouristic test conceived by Porsolt (1977 --Nature, 266 730-732 is generally utilized to evaluate the antidepressant activity.
Swiss strain male mice of average weight of 30 g (CD -1 Charles River) casually assigned to the different treatment groups are used.
The method consists in placing the animal in a plexiglas cylinder 25 cm high and with a diameter of 9 cm filled with water at 24° C. up to a level of 6 cm.
The test lasts 6 minutes and the time in which the animal lets itself float without reacting is measured starting from the 2nd minute (immobility duration).
The animals ape treated by intraperitoneal route (injection volume 10 ml/kg) 1 hour before the test.
The evaluation is carried out in blind. The statistical analysis of the results is carried out where it is possible by means of the T-Student test, otherwise the non parametric test of Mann Whitney is used.

Data set [2] can be described thus: Acute toxicity (LD50) in mice. The settings on record: mouse, in vivo, read-out: LD50 (DL50).
Data set [3] has as its system rats. The experiment in a line: Social Interaction test in rats (anxiolythic activity). The data set is classed as in vivo, Sprague-Dawley male rats. The settings on record: 1 hour before test, vs controls. From the text: The behaviouristic Social Interaction test found by FILE was used. (Animal models of psychiatric disorders, vol. 1 Karger, Basel, pp 151-166).
It consists in an experimental procedure permitting to evaluate the influence of the pharmacological treatment on the spontaneous behaviour of the rat, by means of the social component which in this animal is particularly accentuated.
Sprague-Dawley male rats weighing about 250 g are used. After a normal stabling period (2 weeks), the animal are isolated in smaller cages (267×207×140 mm surface 410 cm^2) for a period of about 5 days.
Then the rats are gathered into couples, avoiding that weight difference between the two animals overcomes 10 g and that the couple components had not previously stabled together.
The couple thus gathered are assigned to the respective treatment group.
Diazepam was utilized as the positive control drug: 1,25 mg/kg are intraperitoneally administered 30' before carrying out the test.
The compounds to be tested are administered 1 hour before carrying out the test.
The box utilized [55×55×30 cm (height)] for the animal observation is white, completely washable and provided with a floor split up into 25 squares.
A 100 Watt lamp is placed upon the box at 50 cm from the floor. The test is realized in a remote room whose only light source is represented by the lamp lighting the box.
The evaluation is carried out in blind. The animals are observed indirectly, by means of a mirror suitably placed.
Evaluated parameters: time passed in Social Interaction (sniffing pursuit, grooming, boxing etc.).
The box is systematically cleaned up after every test.
The results are expressed as a function of a percentage increase of Social Interaction of the treated animals in comparison with the controls.

Setting [4] is: Mus musculus, ip, 1 h, 0.5 mg/kg i.p., vs control (dosage 0), read-out: immobility duration < % (decrease).
Setting [5] is: Mus musculus, ip, 1 h, 1 mg/kg i.p., vs control (dosage 0), read-out: immobility duration < % (decrease).
Setting [6] is: Mus musculus, ip, 1 h, 0.1 mg/kg i.p., vs control (dosage 0), read-out: immobility duration < % (decrease).
The mark [7] stands for this setting: Mus musculus, ip, 1 h, 0.25 mg/kg i.p., vs control (dosage 0), read-out: immobility duration < % (decrease).

Take `COc1ccc(CSc2nnc(NC(C)=O)s2)cc1` [B53]: the immobility duration in data set [1] (0.1 mg/kg i.p.) is 182 ± 16; in data set [1] (0.5 mg/kg i.p.), 165 ± 25; in data set [1] (1 mg/kg i.p.) it was 151 ± 29; in data set [1] (2 mg/kg i.p.), 195 ± 31. For the same compound, the inhibition in vivo at 0.5 mg/kg in data set [1] (setting [4]) was found to be 10%. The inhibition in vivo at 1 mg/kg in data set [1] (setting [5]) worked out at 15%.

`CC(=O)Nc1nnc(SC(C)C)s1` [B36, 2-N-acethyl-5-isopropylmercapto-1,3,4thiadiazole]: the immobility duration turned out to be 178 ± 33 in data set [1] (0.5 mg/kg i.p.); 159 ± 23 in data set [1] (1 mg/kg i.p.); 188 ± 16 in data set [1] (2.5 mg/kg i.p.); 196 ± 22 in data set [1] (5 mg/kg i.p.); 199 ± 15 in data set [1] (12.5 mg/kg i.p.). Also, the inhibition in vivo at 1 mg/kg in data set [1] (setting [5]) came to 19%. In addition, the minimal effective dose in data set [1] (Mus musculus, ip, 1 h) amounted to 1 mg/kg.

On to `COc1ccc(CSc2nnc(N)s2)cc1` [B51], for which the immobility duration in data set [1] (0.01 mg/kg i.p.) was determined as 200 ± 19; in data set [1] (0.03 mg/kg i.p.), 164 ± 29; in data set [1] (0.1 mg/kg i.p.), 166 ± 13; in data set [1] (0.3 mg/kg i.p.), 158 ± 24; in data set [1] (1.25 mg/kg i.p.), 174 ± 40; in data set [1] (5 mg/kg i.p.), 189 ± 15. For the same compound, the inhibition in vivo at 0.03 mg/kg in data set [1] (Mus musculus, ip, 1 h, 0.03 mg/kg i.p., vs control (dosage 0), read-out: immobility duration < % (decrease)) worked out at 13%. Besides, the inhibition in vivo at 0.1 mg/kg in data set [1] (setting [6]) came to 12%. In data set [1] (Mus musculus, ip, 1 h, 0.3 mg/kg i.p., vs control (dosage 0), read-out: immobility duration < % (decrease)), the inhibition in vivo at 0.3 mg/kg stood at 16%. The minimal effective dose in data set [1] (Mus musculus, ip, 1 h) was approximately 0.5 mg/kg.

As usually defined, the LD50 is the dose expected to kill half of the subjects tested. `CC(=O)Nc1nnc(SCc2ccccc2)s1` [B17, 2-acetylamino-5-benzylmercapto-1,3,4-thiadiazole]: the immobility duration in data set [1] (0.03 mg/kg i.p.) came to 198 ± 16; in data set [1] (0.06 mg/kg i.p.), 159 ± 38; in data set [1] (0.125 mg/kg i.p.), 167 ± 22; in data set [1] (0.25 mg/kg i.p.), 183 ± 20; in data set [1] (0.5 mg/kg i.p.), 182 ± 25; in data set [1] (1 mg/kg i.p.), 187 ± 36. In addition, in data set [1] (Mus musculus, ip, 1 h, 0.06 mg/kg i.p., vs control (dosage 0), read-out: immobility duration < % (decrease)), the inhibition in vivo at 0.06 mg/kg was determined as 22%. For the same compound, in data set [1] (Mus musculus, ip, 1 h, 0.125 mg/kg i.p., vs control (dosage 0), read-out: immobility duration < % (decrease)), the inhibition in vivo at 0.125 mg/kg was found to be 17%. In addition, the inhibition in vivo at 0.25 mg/kg in data set [1] (setting [7]) was determined as 10%. Moreover, the inhibition in vivo at 0.5 mg/kg in data set [1] (setting [4]) stood at 10%. Moreover, the minimal effective dose in data set [1] (Mus musculus, ip, 1 h) is approximately 0.5 mg/kg. Also, the LD50 is more than 1000 mg/kg in data set [2] (ip) and more than 1000 mg/kg in data set [2] (po, per os).

Consider `CC(=O)N(C)c1nnc(SC(C)C)s1` [B39, 2-(N-methyl-N-acethyl)-amino-5-isopropylmercapto-1,3,4-thiadiazole], for which the immobility duration in data set [1] (0.125 mg/kg i.p.) was found to be 180 ± 19; in data set [1] (0.25 mg/kg i.p.), 155 ± 36; in data set [1] (0.5 mg/kg i.p.), 169 ± 30; in data set [1] (1 mg/kg i.p.) it was 161 ± 14; in data set [1] (5 mg/kg i.p.), 176 ± 28; in data set [1] (10 mg/kg i.p.), 204 ± 18. For the same compound, the inhibition in vivo at 0.25 mg/kg in data set [1] (setting [7]) came out at 18%. Also, the inhibition in vivo at 0.5 mg/kg in data set [1] (setting [4]) stood at 10%. Moreover, in data set [1] (setting [5]), the inhibition in vivo at 1 mg/kg amounted to 14%.

Take `CSc1nnc(N)s1` [B21]: the immobility duration came out at 187 ± 13 in data set [1] (20 mg/kg i.p.); 175 ± 31 in data set [1] (25 mg/kg i.p.); 161 ± 26 in data set [1] (50 mg/kg i.p.); 176 ± 21 in data set [1] (60 mg/kg i.p.); 170 ± 39 in data set [1] (75 mg/kg i.p.); 187 ± 25 in data set [1] (100 mg/kg i.p.). The inhibition in vivo at 20 mg/kg in data set [1] (Mus musculus, ip, 1 h, 20 mg/kg i.p., vs control (dosage 0), read-out: immobility duration < % (decrease)) was 8%. Besides, the inhibition in vivo at 25 mg/kg in data set [1] (Mus musculus, ip, 1 h, 25 mg/kg i.p., vs control (dosage 0), read-out: immobility duration < % (decrease)) amounted to 16%. In addition, in data set [1] (Mus musculus, ip, 1 h, 50 mg/kg i.p., vs control (dosage 0), read-out: immobility duration < % (decrease)), the inhibition in vivo at 50 mg/kg is 23%. Besides, the inhibition in vivo at 60 mg/kg in data set [1] (Mus musculus, ip, 1 h, 60 mg/kg i.p., vs control (dosage 0), read-out: immobility duration < % (decrease)) stood at 16%. Moreover, the inhibition in vivo at 75 mg/kg in data set [1] (Mus musculus, ip, 1 h, 75 mg/kg i.p., vs control (dosage 0), read-out: immobility duration < % (decrease)) came out at 19%. Also, the inhibition in vivo at 100 mg/kg in data set [1] (Mus musculus, ip, 1 h, 100 mg/kg i.p., vs control (dosage 0), read-out: immobility duration < % (decrease)) turned out to be 11%. Also, the LD50 in data set [2] (ip) is more than 1000 mg/kg.

Consider `COc1cccc(CSc2nnc(N)s2)c1` [B63], for which the “Social Interaction increase (%)” value in data set [3] (0.25 mg/kg) came to 14%; in data set [3] (0.5 mg/kg), 40%; in data set [3] (1 mg/kg), 70%; in data set [3] (2.5 mg/kg) it was 73%. Also, the immobility duration turned out to be 187 ± 34 in data set [1] (0.05 mg/kg i.p.); 171 ± 26 in data set [1] (0.1 mg/kg i.p.); 159 ± 22 in data set [1] (0.25 mg/kg i.p.); 166 ± 25 in data set [1] (0.5 mg/kg i.p.); 174 ± 30 in data set [1] (1 mg/kg i.p.); 187 ± 26 in data set [1] (10 mg/kg i.p.). Further, the inhibition in vivo at 0.1 mg/kg in data set [1] (setting [6]) turned out to be 15%. Further, in data set [1] (setting [7]), the inhibition in vivo at 0.25 mg/kg was 21%. Also, the inhibition in vivo at 0.5 mg/kg in data set [1] (setting [4]) was 18%. The inhibition in vivo at 1 mg/kg in data set [1] (setting [5]) amounted to 14%.

In the case of `CC(C)Sc1nnc(N)s1` [B35], the immobility duration in data set [1] (10 mg/kg i.p.) is 165 ± 42; in data set [1] (15 mg/kg i.p.), 194 ± 14; in data set [1] (20 mg/kg i.p.) it was 185 ± 11. Further, in data set [1] (Mus musculus, ip, 1 h, 10 mg/kg i.p., vs control (dosage 0), read-out: immobility duration < % (decrease)), the inhibition in vivo at 10 mg/kg is 17%. Besides, the minimal effective dose in data set [1] (Mus musculus, ip, 1 h) is 10 mg/kg.

As to `CN(C)CCCN1c2ccccc2CCc2ccccc21` [imipramine, reference compound], the minimal effective dose in data set [1] (Mus musculus, ip, 1 h) worked out at 20 mg/kg.

Turning to `CC(=O)Nc1nnc(SCc2ccc([N+](=O)[O-])cc2)s1` [B45], the immobility duration stood at 182 ± 22 in data set [1] (0.1 mg/kg i.p.), 167 ± 26 in data set [1] (0.25 mg/kg i.p.), 166 ± 18 in data set [1] (0.5 mg/kg i.p.) and 183 ± 17 in data set [1] (1 mg/kg i.p.). For the same compound, in data set [1] (setting [7]), the inhibition in vivo at 0.25 mg/kg is 16%. Also, the inhibition in vivo at 0.5 mg/kg in data set [1] (setting [4]) was 16%.
